{"source": "the supplement of paper PMC3770661", "system": "HepG2 (L1.3 5'UTR promoter firefly luciferase reporter)", "assay": "L1 promoter activity (FLuc/RLuc) relative to DMSO vehicle control (% of control); higher = stronger L1 promoter activation", "method": "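HepG2 cells in 96-well plates were cotransfected with pGL4.11-L1.3 5'UTR (firefly luciferase driven by the human L1.3 5'UTR promoter) and pGL4.74 (HSV-TK Renilla luciferase internal control), then treated with compound for 6 or 24 h. FLuc/RLuc ratio was normalised to the DMSO vehicle control (% of control); concentrations where RLuc fell below 50% of control were excluded (N.D.). Mean of at least two independent experiments in duplicate or quadruplicate.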", "key": {"[1]": {"conditions": "concentration (uM unless unit written): 5, treatment time: 6 h"}, "[2]": {"conditions": "concentration (uM unless unit written): 5, treatment time: 24 h"}, "[3]": {"conditions": "concentration (uM unless unit written): 10, treatment time: 6 h"}, "[4]": {"conditions": "concentration (uM unless unit written): 10, treatment time: 24 h"}, "[5]": {"conditions": "concentration (uM unless unit written): 500, treatment time: 6 h"}, "[6]": {"conditions": "concentration (uM unless unit written): 500, treatment time: 24 h"}}, "note": "± gives the uncertainty stated by the source."}
{"smiles": "CCCc1nc2c(C)cc(-c3nc4ccccc4n3C)cc2n1Cc1ccc(-c2ccccc2C(=O)O)cc1", "note": "[Telmisartan]", "values": [{"measurement": "L1 promoter activity", "setting": "concentration (uM unless unit written): 1.25, treatment time: 6 h", "value": "104 ± 11"}, {"measurement": "L1 promoter activity", "setting": "concentration (uM unless unit written): 1.25, treatment time: 24 h", "value": "112 ± 8"}, {"measurement": "L1 promoter activity", "setting": "concentration (uM unless unit written): 2.5, treatment time: 6 h", "value": "105 ± 8.6"}, {"measurement": "L1 promoter activity", "setting": "concentration (uM unless unit written): 2.5, treatment time: 24 h", "value": "114 ± 9.7"}, {"measurement": "L1 promoter activity", "setting": "[1]", "value": "115 ± 3.5"}, {"measurement": "L1 promoter activity", "setting": "[2]", "value": "114 ± 9"}, {"measurement": "L1 promoter activity", "setting": "[3]", "value": "119 ± 15"}, {"measurement": "L1 promoter activity", "setting": "[4]", "value": "119 ± 3.6"}]}
{"smiles": "Cc1cccc(Nc2cc(Cl)nc(SCC(=O)O)n2)c1C", "values": [{"measurement": "L1 promoter activity", "setting": "concentration (uM unless unit written): 200, treatment time: 6 h", "value": "98.9 ± 11"}, {"measurement": "L1 promoter activity", "setting": "concentration (uM unless unit written): 200, treatment time: 24 h", "value": "82.7 ± 5.2"}]}
{"smiles": "O=C(O)c1ccccc1Nc1cccc(C(F)(F)F)c1", "note": "[Flufenamic acid]", "values": [{"measurement": "L1 promoter activity", "setting": "concentration (uM unless unit written): 62.5, treatment time: 6 h", "value": "130 ± 7.7"}, {"measurement": "L1 promoter activity", "setting": "concentration (uM unless unit written): 62.5, treatment time: 24 h", "value": "158 ± 19"}, {"measurement": "L1 promoter activity", "setting": "concentration (uM unless unit written): 125, treatment time: 6 h", "value": "119 ± 14"}, {"measurement": "L1 promoter activity", "setting": "concentration (uM unless unit written): 125, treatment time: 24 h", "value": "120 ± 20"}, {"measurement": "L1 promoter activity", "setting": "concentration (uM unless unit written): 250, treatment time: 6 h", "value": "129 ± 21"}]}
{"smiles": "CC(C)n1c(/C=C/C(O)CC(O)CC(=O)O)c(-c2ccc(F)cc2)c2ccccc21", "note": "(stereo unspecified) [Fluvastatin]", "values": [{"measurement": "L1 promoter activity", "setting": "[1]", "value": "126 ± 35"}, {"measurement": "L1 promoter activity", "setting": "[2]", "value": "134 ± 32"}, {"measurement": "L1 promoter activity", "setting": "[3]", "value": "111 ± 32"}, {"measurement": "L1 promoter activity", "setting": "[4]", "value": "102 ± 23"}, {"measurement": "L1 promoter activity", "setting": "concentration (uM unless unit written): 20, treatment time: 6 h", "value": "99.4 ± 19"}, {"measurement": "L1 promoter activity", "setting": "concentration (uM unless unit written): 20, treatment time: 24 h", "value": "109 ± 25"}]}
{"smiles": "CCOC(=O)C1=C(COCCN)NC(C)=C(C(=O)OC)C1c1ccccc1Cl", "note": "(stereo unspecified) [Amlodipine besylate]", "values": [{"measurement": "L1 promoter activity", "setting": "concentration (uM unless unit written): 0.5, treatment time: 6 h", "value": "93.6 ± 11"}, {"measurement": "L1 promoter activity", "setting": "concentration (uM unless unit written): 0.5, treatment time: 24 h", "value": "105 ± 8.9"}, {"measurement": "L1 promoter activity", "setting": "concentration (uM unless unit written): 1, treatment time: 6 h", "value": "104 ± 10"}, {"measurement": "L1 promoter activity", "setting": "concentration (uM unless unit written): 1, treatment time: 24 h", "value": "101 ± 22"}, {"measurement": "L1 promoter activity", "setting": "concentration (uM unless unit written): 2, treatment time: 6 h", "value": "95.7 ± 7.8"}, {"measurement": "L1 promoter activity", "setting": "concentration (uM unless unit written): 2, treatment time: 24 h", "value": "107 ± 12"}, {"measurement": "L1 promoter activity", "setting": "[3]", "value": "85.2 ± 8.2"}]}
{"smiles": "O=P1(N(CCCl)CCCl)NCCCO1", "note": "(stereo unspecified) [Cyclophosphamide]", "values": [{"measurement": "L1 promoter activity", "setting": "concentration (uM unless unit written): 10000, treatment time: 6 h", "value": "96.3 ± 14"}, {"measurement": "L1 promoter activity", "setting": "concentration (uM unless unit written): 10000, treatment time: 24 h", "value": "95.3 ± 11"}, {"measurement": "L1 promoter activity", "setting": "concentration (uM unless unit written): 20000, treatment time: 6 h", "value": "93.6 ± 22"}, {"measurement": "L1 promoter activity", "setting": "concentration (uM unless unit written): 20000, treatment time: 24 h", "value": "77.9 ± 4.5"}, {"measurement": "L1 promoter activity", "setting": "concentration (uM unless unit written): 40000, treatment time: 6 h", "value": "98.3 ± 8.4"}]}
{"smiles": "Cc1cc(CC(=O)O)n(C)c1C(=O)c1ccc(Cl)cc1", "note": "[Zomepirac]", "values": [{"measurement": "L1 promoter activity", "setting": "[5]", "value": "102 ± 9.6"}, {"measurement": "L1 promoter activity", "setting": "[6]", "value": "86.3 ± 6.3"}]}
{"smiles": "COC1=C(OC)C(=O)c2ccccc2C1=O", "note": "[2,3-Dimethoxy-1,4-naphthoquinone]", "values": [{"measurement": "L1 promoter activity", "setting": "concentration (uM unless unit written): 15, treatment time: 6 h", "value": "119 ± 8.7"}, {"measurement": "L1 promoter activity", "setting": "concentration (uM unless unit written): 30, treatment time: 6 h", "value": "119 ± 8.1"}]}
{"smiles": "Nc1nc2c(ncn2COC(CO)CO)c(=O)[nH]1", "note": "[Ganciclovir]", "values": [{"measurement": "L1 promoter activity", "setting": "[5]", "value": "109 ± 17"}, {"measurement": "L1 promoter activity", "setting": "[6]", "value": "98.3 ± 6.1"}, {"measurement": "L1 promoter activity", "setting": "concentration (uM unless unit written): 1000, treatment time: 6 h", "value": "115 ± 16"}, {"measurement": "L1 promoter activity", "setting": "concentration (uM unless unit written): 1000, treatment time: 24 h", "value": "104 ± 11"}]}
